ChEMBL document CHEMBL3091307, “Structure-anti-MRSA activity relationship of macrocyclic bis(bibenzyl) derivatives” (2013)
Converted amounts (≈) assume the structure as drawn. The source made the active and inactive calls. The rule behind the calls is not given here.

Experiments:
Staphylococcus aureus [1] = assay: Antibacterial activity against methicillin-resistant Staphylococcus aureus clinical isolate N315 by liquid microdilution method; type: functional
Staphylococcus aureus [2] = assay: Antibacterial activity against methicillin-resistant Staphylococcus aureus clinical isolate OM584 by liquid microdilution method; type: functional
Staphylococcus aureus [3] = assay: Antibacterial activity against methicillin-resistant Staphylococcus aureus clinical isolate OM481 by liquid microdilution method; type: functional
Staphylococcus aureus [4] = assay: Bacteriostatic activity against methicillin-resistant Staphylococcus aureus at 4 times MIC by cell survival assay; type: functional, organism-based
Staphylococcus aureus [5] = assay: Bactericidal activity against methicillin-resistant Staphylococcus aureus at 4 times MIC by cell survival assay; type: functional, organism-based
Staphylococcus aureus [6] = assay: Antibacterial activity against 2-phenoxyphenol and trichlosan-resistant Staphylococcus aureus clinical isolate N315 by liquid microdilution method; type: functional
Staphylococcus aureus [7] = assay: Antibacterial activity against methicillin-resistant Staphylococcus aureus at 4 times MIC by cell survival assay; type: functional, organism-based

SMILES | MIC (Staphylococcus aureus [1]) [µg/mL] | MIC (Staphylococcus aureus [2]) [µg/mL] | MIC (Staphylococcus aureus [3]) [µg/mL] | Activity (Staphylococcus aureus [4]) | Activity (Staphylococcus aureus [5]) | MIC (Staphylococcus aureus [6]) [µg/mL] | Activity (Staphylococcus aureus [7])
Oc1ccc2c(c1)CCc1ccc(c(F)c1)Oc1cc(ccc1O)CCc1ccc-2c(O)c1 | 4 (≈ 9.04 µM) | 8 (≈ 18.1 µM) | 8 (≈ 18.1 µM) |  |  |  | 
Oc1ccc2cc1Oc1ccc(cc1)CCc1ccc(O)c(c1)Oc1ccc(cc1)CC2 | > 100 | > 100 | > 100 |  |  |  | 
Oc1ccccc1Oc1ccccc1 | 8 (≈ 43 µM) | 8 (≈ 43 µM) | 8 (≈ 43 µM) | Active | inactive |  | 
CC(=O)NC[C@H]1CN(c2ccc(N3CCOCC3)c(F)c2)C(=O)O1 [LINEZOLID] |  | 1 (≈ 2.96 µM) | 1 (≈ 2.96 µM) |  |  |  | 
Oc1ccc2c(c1)CCc1ccc(c(O)c1)-c1ccc(O)c(c1)CCc1ccc-2c(O)c1 | 32 (≈ 75.4 µM) | 32 (≈ 75.4 µM) | 32 (≈ 75.4 µM) |  |  |  | 
Oc1ccc2c(c1)CCc1ccc(cc1)Oc1cccc(c1)CCc1ccc-2c(O)c1 | 1 (≈ 2.45 µM) | 1 (≈ 2.45 µM) | 1 (≈ 2.45 µM) |  |  | 1 (≈ 2.45 µM) | 
Oc1ccc2c(c1)CCc1ccc(cc1)Oc1cc(ccc1O)CCc1ccc-2c(O)c1 [RICCARDI C] | 2 (≈ 4.71 µM) | 2 (≈ 4.71 µM) | 2 (≈ 4.71 µM) |  |  | 2 (≈ 4.71 µM) | Active
Oc1ccc2c(c1)CCc1ccc(cc1O)Oc1cc(ccc1O)CCc1ccc-2c(O)c1 | 8 (≈ 18.2 µM) | 8 (≈ 18.2 µM) | 8 (≈ 18.2 µM) |  |  |  | 
Oc1ccc2cc1Oc1ccc(cc1)CCc1ccccc1-c1ccc(cc1O)CC2 | 1 (≈ 2.45 µM) | 1 (≈ 2.45 µM) | 1 (≈ 2.45 µM) |  |  | 1 (≈ 2.45 µM) | 
Oc1ccc2c(c1)CCc1ccc(c(O)c1)Oc1cc(ccc1O)CCc1ccc-2c(O)c1 | 8 (≈ 18.2 µM) | 16 (≈ 36.3 µM) | 16 (≈ 36.3 µM) |  |  |  | 
Oc1ccc2c(c1)CCc1ccc(cc1O)Oc1cccc(c1)CCc1ccc-2c(O)c1 | 4 (≈ 9.42 µM) | 4 (≈ 9.42 µM) | 4 (≈ 9.42 µM) |  |  |  | 
Oc1ccc2c(c1)CCc1ccc(cc1)Oc1cc(ccc1F)CCc1ccc-2c(O)c1 | 1 (≈ 2.34 µM) | 2 (≈ 4.69 µM) | 1 (≈ 2.34 µM) |  |  |  | 
Oc1ccc2c(c1)CCc1ccc(O)c(c1)Oc1ccc(cc1)CCc1ccc-2c(O)c1 | 4 (≈ 9.42 µM) | 4 (≈ 9.42 µM) | 4 (≈ 9.42 µM) |  |  |  | 
